Assay [1] deals with acyl-CoA: cholesterol acyltransferase (ACAT). Put plainly: in vitro ACAT inhibition: formation of radiolabeled cholesterol oleate from radiolabeled oleic acid in rabbit intestinal microsomes. It counts as biochemical. Particulars: tissue preparation containing rabbit intestinal microsomes. The method, then:
The ability of representative compounds of the present invention to inhibit ACAT was measured using an in vitro test more fully described in F. J. Field and R. G. Salone, Biochemica et Biophysica 712:557-570 (1982). The test assesses the ability of a test compound to inhibit the acylation of cholesterol by oleic acid by measuring the amount of radiolabeled cholesterol oleate formed from radiolabeled oleic acid in a tissue preparation containing rabbit intestinal microsomes.
The data appear in Table 1 where they are expressed in IC50 values; i.e., the concentration of test compound required to inhibit 50% […] of the enzyme.

In another assay the test system is male Sprague-Dawley rats. Put plainly: in vivo screen designated APCC: blood cholesterol in rats fed the PCC diet. To be noted: blood cholesterol vs vehicle (CMC/Tween); dosed at 4 PM, PCC diet with 1% or 0.5% cholic acid overnight, sacrificed at 8 AM; dose not given. The source says: In one in vivo screen designated APCC. male Sprague-Dawley rats (200 to 225 g) were randomly divided into treatment groups and dosed at 4 PM with either vehicle (CMCTween) or suspensions of compounds in vehicle. The normal chow diet was then replaced with the PCC diet with either 1% or 0.5^00 cholic acid, as indicated. The rats consumed this diet ad libitum during the night and were sacrificed at 8 AM to obtain blood samples for cholesterol analysis using standard procedures. Statistical differences between mean cholesterol values for the same vehicle were determined using analysis of variance followed by Fisher's least significant test.

SMILES strings stand for the structures.

For the compound `CC(C)c1cccc(C(C)C)c1NC(=O)NCC(NC(=O)c1ccccc1)c1ccccc1` (racemic) [Example 4, (±)-N-[2-[[[[2,6-bis(1-methylethyl)phenyl]amino]carbonyl]amino]-1-phenylethyl]benzenecarboxamide], the IC50 (in general, the concentration that gives 50% inhibition) in assay [1] turned out to be 530 nM.

Consider `CC(C)c1cccc(C(C)C)c1NC(=O)NCC(NCc1ccccc1)c1ccccc1` (racemic) [Example 5, (±)-N-(2,6-bis(1-methylethyl)phenyl]-N'-[2-phenylmethylamino)-2-phenylethyl]urea], for which, in assay [1], the 50% inhibitory concentration (IC50) amounted to 51 nM. In addition, in the assay with male Sprague-Dawley rats, the “% Change (mg/dl)” value is -53%.

The compound `CCCCCCC(=O)NC(CNC(=O)Nc1c(C(C)C)cccc1C(C)C)c1ccccc1` (racemic) [Example 7, (±)-N-[2-[[[[2,6-bis(1-methylethyl)phenyl]amino]carbonyl]amino]-1-phenylethyl]heptanamide] yielded an IC50 in assay [1] of 150 nM. This counts as sub-micromolar.

Turning to `CCCCCCCNC(CNC(=O)Nc1c(C(C)C)cccc1C(C)C)c1ccccc1` (racemic) [Example 8, (±)-N-[2,6-bis(1-methylethyl)phenyl]-N'-[2-heptylamino-2-phenylethyl]urea], the IC50 in assay [1] is 110 nM. Moreover, the “% Change (mg/dl)” value in the assay with male Sprague-Dawley rats is -25%.

Regarding `CC(C)c1cccc(C(C)C)c1NC(=O)NCC(NC(=O)CCCCCBr)c1ccccc1` (racemic) [Example 9, (±)-N-[2-[[[[2,6-bis(1-methylethy))phenyl]amino]carbonyl]amino]-1-phenylethyl]-6-bromohexanamide], half-maximal inhibition in assay [1] (IC50) required 380 nM. The “% Change (mg/dl)” value with male Sprague-Dawley rats is on record as -36%.

The compound `COCCCCCC(=O)NC(CNC(=O)Nc1c(C(C)C)cccc1C(C)C)c1ccccc1` (racemic) [Example 10, (±)-N-[2-[[[[2,6-bis(1-methylethyl)phenyl]amino]carbonyl]amino]-1-phenylethyl]-6-methoxyhexanamide] registered a concentration for half-maximal inhibition (IC50) in assay [1] of 390 nM.

On to `CCCCCCCCCCCCNCC(CNC(=O)Nc1c(C(C)C)cccc1C(C)C)c1ccccc1` (racemic) [Example 11, (±)-N-[2,6-bis(1-methylethyl)phenyl]-N'-[3-dodecylamino-2-phenylpropyl]urea], for which the “% Change (mg/dl)” value in the assay on male Sprague-Dawley rats is -54%.

Take `CC(C)c1cccc(C(C)C)c1NC(=O)NCC(NC(=O)c1ccccn1)c1ccccc1` (racemic) [Example 12, (±)-N-[2-[[[[2,6-bis(1-methylethyl)phenyl]amino]carbonyl]amino]-1-phenethyl-2-pyridinylarnide]: in assay [1], the half-inhibitory concentration (IC50) was found to be 80 nM. This lies in the double-digit nanomolar range.

(Values after EP0432442A1, “ACAT inhibitors” (priority 1989, dated 1991).)
